In ChEMBL document CHEMBL4196117, “PK/PD Disconnect Observed with a Reversible Endothelial Lipase Inhibitor” (ACS Med Chem Lett, 2018):
The source made the active and inactive calls. The rule behind the calls is not given here.

Tests used:
[1] = Total AUC in CD1 mouse at 1 mg/kg, iv administered as bolus dose; assay type: ADME, organism-based; design: dose 1 mg/kg, time AUCmax, route intravenous; conditions: in vivo
[2] = Cmax in CD1 mouse at 1 mg/kg, iv administered as bolus dose; assay type: ADME, organism-based; design: dose 1 mg/kg, route intravenous; conditions: in vivo
Lipoprotein lipase = target: T1, Lipoprotein lipase (Homo sapiens, UniProt P06858); experiment: Inhibition of recombinant human LPL expressed in African green monkey COS7 cells using DGGR/DMPG vesicles as substrate pretreated for 10 mins followed by substrate addition and measured for 5 mins
T1 sequence (P06858 whole entry): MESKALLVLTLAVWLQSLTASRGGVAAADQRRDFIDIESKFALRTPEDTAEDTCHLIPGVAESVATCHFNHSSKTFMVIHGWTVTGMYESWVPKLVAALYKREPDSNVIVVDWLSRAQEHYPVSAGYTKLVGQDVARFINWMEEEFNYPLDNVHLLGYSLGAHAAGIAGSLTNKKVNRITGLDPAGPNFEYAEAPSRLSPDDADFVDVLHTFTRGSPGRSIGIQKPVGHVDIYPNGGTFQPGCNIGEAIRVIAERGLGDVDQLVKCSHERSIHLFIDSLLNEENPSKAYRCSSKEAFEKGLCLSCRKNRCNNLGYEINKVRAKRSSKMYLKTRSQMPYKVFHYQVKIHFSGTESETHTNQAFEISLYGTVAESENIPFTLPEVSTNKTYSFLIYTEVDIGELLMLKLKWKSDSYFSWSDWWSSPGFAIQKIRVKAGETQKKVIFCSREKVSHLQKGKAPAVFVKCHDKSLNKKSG

[3] = Oral bioavailability in CD1 mouse at 1 mg/kg administered as bolus dose; assay type: ADME, organism-based; conditions: in vivo
[4] = Half life in CD1 mouse at 1 mg/kg, iv administered as bolus dose; assay type: ADME, organism-based; conditions: in vivo
[5] = target: T2, Hepatic triacylglycerol lipase (Homo sapiens, UniProt P11150); experiment: Inhibition of recombinant human HL expressed in African green monkey COS7 cells using HDL as substrate pretreated for 10 mins followed by substrate addition and measured after 30 mins by LC/MS/MS analysis
T2 sequence (P11150 whole entry): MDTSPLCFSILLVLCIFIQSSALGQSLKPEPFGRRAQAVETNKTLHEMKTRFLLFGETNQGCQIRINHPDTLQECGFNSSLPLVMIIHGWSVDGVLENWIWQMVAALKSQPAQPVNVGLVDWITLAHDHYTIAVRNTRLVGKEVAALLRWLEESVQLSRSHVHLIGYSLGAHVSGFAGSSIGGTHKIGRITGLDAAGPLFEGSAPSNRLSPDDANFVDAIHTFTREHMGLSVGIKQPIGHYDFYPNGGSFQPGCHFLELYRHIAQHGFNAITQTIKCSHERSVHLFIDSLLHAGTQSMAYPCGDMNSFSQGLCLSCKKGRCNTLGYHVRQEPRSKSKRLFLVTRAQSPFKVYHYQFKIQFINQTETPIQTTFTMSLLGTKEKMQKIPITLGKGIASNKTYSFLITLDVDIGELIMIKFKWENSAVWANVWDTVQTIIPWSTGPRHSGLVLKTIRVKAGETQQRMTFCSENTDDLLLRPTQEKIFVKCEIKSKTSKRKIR

[6] = target: T3, Endothelial lipase (Homo sapiens) (UniProt Q9Y5X9); experiment: Reversible inhibition of endothelial lipase in human HT1080 cells at 2 uM using PED-A1 containing DMPG vesicles as substrate pretreated for 20 mins followed by compound washout prior to substrate addition and measured every 20 secs for 10 mins by fluorescence assay; assay type: cell-based
T3 sequence (whole entry): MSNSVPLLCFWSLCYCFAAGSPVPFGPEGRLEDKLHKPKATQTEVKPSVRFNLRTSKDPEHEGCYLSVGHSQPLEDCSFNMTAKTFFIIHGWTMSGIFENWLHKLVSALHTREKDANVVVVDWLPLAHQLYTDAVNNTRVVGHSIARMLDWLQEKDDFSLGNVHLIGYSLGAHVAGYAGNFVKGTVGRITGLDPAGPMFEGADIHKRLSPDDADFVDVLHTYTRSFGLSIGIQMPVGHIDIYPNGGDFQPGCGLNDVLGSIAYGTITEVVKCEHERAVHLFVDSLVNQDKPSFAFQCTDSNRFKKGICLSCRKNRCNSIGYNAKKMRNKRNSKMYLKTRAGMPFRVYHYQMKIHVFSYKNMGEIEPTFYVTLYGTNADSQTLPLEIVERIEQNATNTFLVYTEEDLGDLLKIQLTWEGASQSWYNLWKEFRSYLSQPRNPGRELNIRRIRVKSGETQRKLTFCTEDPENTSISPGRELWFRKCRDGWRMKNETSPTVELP

Endothelial lipase [7] = target: T4, Endothelial lipase (Homo sapiens, UniProt Q9Y5X9); experiment: Inhibition of endothelial lipase in human HT1080 cells using PED-A1 containing DMPG vesicles as substrate pretreated for 20 mins followed by substrate addition and measured every 20 secs for 10 mins by fluorescence assay; assay type: cell-based
T4 sequence (Q9Y5X9 whole entry): T3 sequence (whole entry)

[8] = Dissociation constant, pKa of the compound; assay type: physicochemical
[9] = Cmax in CD1 mouse at 1 mg/kg, po administered as bolus dose; assay type: ADME, organism-based; design: dose 1 mg/kg, route oral; conditions: in vivo
[10] = Total AUC in CD1 mouse at 1 mg/kg, po administered as bolus dose; assay type: ADME, organism-based; design: dose 1 mg/kg, route oral, time AUCmax; conditions: in vivo
[11] = Half life in CD1 mouse at 1 mg/kg, po administered as bolus dose; assay type: ADME, organism-based; conditions: in vivo
[12] = Clearance in CD1 mouse at 1 mg/kg, iv administered as bolus dose; assay type: ADME, organism-based; conditions: in vivo
Endothelial lipase [13] = target: T4, Endothelial lipase; experiment: Inhibition of endothelial lipase in human HT1080 cells using HDL as substrate pretreated for 10 mins followed by substrate addition and measured after 30 mins by LC/MS/MS analysis; assay type: cell-based
[14] = target: T3, Endothelial lipase (Homo sapiens); experiment: Ratio of IC50 for endothelial lipase in human HT1080 cells using HDL as substrate to IC50 for endothelial lipase in human HT1080 cells using PED-A1 containing DMPG vesicles as substrate; assay type: cell-based
Homo sapiens [15] = organism: Homo sapiens; experiment: Selectivity ratio of IC50 for MAGL (unknown origin) to IC50 for endothelial lipase in human HT1080 cells using PED-A1 containing DMPG vesicles as substrate; assay type: cell-based
Mus musculus = experiment: Effect on plasma HDL-C level in C57BL/6J mouse at 10 to 50 mg/kg, po qd for 5 days measured at 1 day for 5 days; assay type: functional, organism-based
Homo sapiens [16] = organism: Homo sapiens; experiment: Selectivity ratio of IC50 for recombinant human PL expressed in HEK293F cells to IC50 for endothelial lipase in human HT1080 cells using PED-A1 containing DMPG vesicles as substrate; assay type: cell-based
Homo sapiens [17] = organism: Homo sapiens; experiment: Selectivity ratio of IC50 for recombinant human LPL expressed in African green monkey COS7 cells to IC50 for endothelial lipase in human HT1080 cells using PED-A1 containing DMPG vesicles as substrate; assay type: cell-based
[18] = target: T5, Endothelial lipase (Mus musculus) (UniProt Q9WVG5); experiment: Competitive inhibition of recombinant mouse endothelial lipase expressed in HEK293F cells using varying levels of HDL as substrate pretreated for 10 mins followed by substrate addition and measured after 30 mins by LC/MS/MS analysis
T5 sequence (whole entry): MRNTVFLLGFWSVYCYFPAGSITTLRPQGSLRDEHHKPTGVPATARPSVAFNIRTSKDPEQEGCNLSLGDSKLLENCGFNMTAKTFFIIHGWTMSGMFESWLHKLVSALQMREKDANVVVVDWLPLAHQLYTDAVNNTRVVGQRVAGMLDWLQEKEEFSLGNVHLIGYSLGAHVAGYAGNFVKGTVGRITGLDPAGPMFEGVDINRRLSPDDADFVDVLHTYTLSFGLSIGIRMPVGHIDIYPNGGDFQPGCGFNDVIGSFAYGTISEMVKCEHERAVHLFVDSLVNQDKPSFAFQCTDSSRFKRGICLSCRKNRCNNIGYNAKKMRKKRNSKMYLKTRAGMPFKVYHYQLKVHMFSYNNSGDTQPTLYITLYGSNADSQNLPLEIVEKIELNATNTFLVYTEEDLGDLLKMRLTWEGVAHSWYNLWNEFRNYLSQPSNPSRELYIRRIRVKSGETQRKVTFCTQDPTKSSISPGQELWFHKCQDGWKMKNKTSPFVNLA

Homo sapiens [19] = organism: Homo sapiens; experiment: Selectivity ratio of IC50 for recombinant human HL expressed in African green monkey COS7 cells using HDL as substrate to IC50 for endothelial lipase in human HT1080 cells using HDL as substrate; assay type: cell-based
[20] = target: T3, Endothelial lipase (Homo sapiens); experiment: Competitive inhibition of endothelial lipase in human HT1080 cells using varying level of HDL as substrate pretreated for 10 mins followed by substrate addition and measured after 30 mins by LC/MS/MS analysis; assay type: cell-based

Cn1ccc(C(=O)NCCCc2ccc(Cl)c(Cl)c2)c(O)c1=O
AUC [1]: 19 µM·h
Cmax [2]: 25 µM
IC50 (Lipoprotein lipase): > 90000 nM
bioavailability [3]: 82%
half-life [4]: 4.9 h
IC50 [5]: 16 nM
inhibition [6]: Active
IC50 (Endothelial lipase [7]): 61 nM
pKa [8]: 6.5
Cmax [9]: 2 µM
AUC [10]: 16 µM·h
half-life [11]: 2.9 h
clearance [12]: 2.5 mL/min/kg

CN1C(=O)C(O)=C(C(=O)NCCCc2ccc(Cl)c(Cl)c2)C1C1CC1 (centres undefined)
IC50 (Endothelial lipase [13]): 5290 nM
IC50 (Endothelial lipase [7]): 88 nM
Ratio IC50 [14]: 60 to 100

CN1CC(C(=O)NCCc2ccc(Cl)c(Cl)c2)=C(O)C1=O
IC50 (Endothelial lipase [7]): 296 nM

CCN1CC(C(=O)NCCCc2ccc(Cl)c(Cl)c2)=C(NCCCN2CCCCC2)C1=O
IC50 (Endothelial lipase [13]): 4210 nM
IC50 (Endothelial lipase [7]): 25 nM
Ratio IC50 [14]: > 50

CN1CC(C(=O)NCCCc2ccccc2)=C(O)C1=O
IC50 (Endothelial lipase [7]): 5830 nM

CCN1CC(C(=O)NC(C)CCc2ccc(Cl)c(Cl)c2)=C(O)C1=O (stereo in doubt; 7d)
IC50 (Endothelial lipase [13]): 835 nM
IC50 (Endothelial lipase [7]): 910 nM

CCN1CC(C(=O)NC(C)CCc2ccc(Cl)c(Cl)c2)=C(O)C1=O (racemic)
IC50 (Endothelial lipase [13]): 264 nM
IC50 (Endothelial lipase [7]): 44 nM

CN1C(=O)C(O)=C(C(=O)NCCCc2ccc(Cl)c(Cl)c2)C1CC(C)(C)C (centres undefined)
IC50 (Endothelial lipase [13]): 1770 nM
IC50 (Endothelial lipase [7]): 29 nM
Ratio IC50 [14]: 60 to 100

CCN1CC(C(=O)NCCCc2ccc(Cl)c(Cl)c2)=C(NCCc2ccncc2)C1=O
IC50 (Endothelial lipase [13]): 5990 nM
IC50 (Endothelial lipase [7]): 59 nM
Ratio IC50 [14]: > 50

O=C(NCCCc1ccc(Cl)c(Cl)c1)C1=C(O)C(=O)N(CCN2CCOCC2)C1
IC50 (Endothelial lipase [7]): 190 nM

O=C(NCCCc1ccc(Cl)c(Cl)c1)C1=C(O)C(=O)N(CCOc2ccccc2)C1
IC50 (Endothelial lipase [13]): 826 nM
Ratio IC50 [14]: 11 to 150

CN1CC(C(=O)NCCCc2ccc(Cl)c(Cl)c2)=C(O)C1=O
AUC [1]: 24 µM·h
Cmax [2]: 32 µM
IC50 (Lipoprotein lipase): > 37000 nM
bioavailability [3]: 76%
half-life [4]: 3.4 h
IC50 (Endothelial lipase [13]): 1760 nM
IC50 [5]: 76 nM
IC50 (Endothelial lipase [7]): 41 nM
pKa [8]: 4.8
Cmax [9]: 8.2 µM
AUC [10]: 18 µM·h
half-life [11]: 3.2 h
clearance [12]: 2.1 mL/min/kg
Ratio IC50 [14]: 11 to 150

CS(=O)(=O)NC(=O)CCN1CC(C(=O)NCCCc2ccc(Cl)c(Cl)c2)=C(O)C1=O
IC50 (Endothelial lipase [13]): 1050 nM
IC50 (Endothelial lipase [7]): 95 nM
Ratio IC50 [14]: 11 to 150

CCN1CC(C(=O)NCCCc2ccc(Cl)c(Cl)c2)=C(NCCOC(C)C)C1=O
IC50 (Endothelial lipase [13]): 945 nM
IC50 (Endothelial lipase [7]): 19 nM
Ratio IC50 [14]: > 50

O=C(NCCCc1ccc(Cl)c(Cl)c1)C1=C(O)C(=O)N(Cc2ccccc2)C1
Ratio IC50 [14]: 11 to 150

CCN1CC(C(=O)NCCCc2ccc(Cl)c(Cl)c2)=C(O)C1=O
IC50 (Endothelial lipase [13]): 3520 nM
IC50 (Endothelial lipase [7]): 30 nM
Ratio IC50 [14]: 11 to 150

CCN1CC(C(=O)NCCCc2ccc(Cl)c(Cl)c2)=C(NC)C1=O
IC50 (Endothelial lipase [13]): 3020 nM
IC50 (Endothelial lipase [7]): < 10 nM
Ratio IC50 [14]: > 50

O=C(NCCCc1ccc(Cl)c(Cl)c1)C1=C(O)C(=O)N(CCCN2CCCC2=O)C1
IC50 (Endothelial lipase [13]): 2440 nM
IC50 (Endothelial lipase [7]): 19 nM
Ratio IC50 [14]: 11 to 150

CN1C(=O)C(O)=C(C(=O)NCCCc2ccc(Cl)c(Cl)c2)C1c1ccccc1Cl (centres undefined)
IC50 (Endothelial lipase [13]): 5750 nM
IC50 (Endothelial lipase [7]): 59 nM
Ratio IC50 [14]: 60 to 100

CCN1CC(C(=O)NC(C)CCc2ccc(Cl)c(Cl)c2)=C(O)C1=O (stereo in doubt; 7c)
Ratio IC50 (Homo sapiens [15]): > 250
Activity (Mus musculus): inactive
Ratio IC50 (Homo sapiens [16]): > 250
Ratio IC50 (Homo sapiens [17]): > 250
inhibition [18]: inactive
Ratio IC50 (Homo sapiens [19]): 12
inhibition [20]: inactive
